Source: ChEMBL document CHEMBL1146831, “Binding of a homologous series of anthraquinones to DNA” (Bioorg Med Chem Lett, 2004)

Legend:
Nucleic Acid [1] = assay: Binding constant towards AT-rich calf thymus DNA hairpin; format: nucleic-acid assay; conditions: Bos taurus
Nucleic Acid [2] = assay: Binding constant towards GC-rich calf thymus DNA hairpin; format: nucleic-acid assay; conditions: Bos taurus

COCCOCCCNCCC(=O)Nc1ccc2c(c1)C(=O)c1ccc(NC(=O)CCNCCCOCCOC)cc1C2=O
K (Nucleic Acid [1]): 550000 M⁻¹ | K (Nucleic Acid [2]): 220000 M⁻¹

COCCOCCOCCOCCCNCCC(=O)Nc1ccc2c(c1)C(=O)c1ccc(NC(=O)CCNCCCOCCOCCOCCOC)cc1C2=O
K (Nucleic Acid [1]): 190000 M⁻¹ | K (Nucleic Acid [2]): 90000 M⁻¹

COCCOCCOCCCNCCC(=O)Nc1ccc2c(c1)C(=O)c1ccc(NC(=O)CCNCCCOCCOCCOC)cc1C2=O
K (Nucleic Acid [1]): 250000 M⁻¹ | K (Nucleic Acid [2]): 110000 M⁻¹

COCCCNCCC(=O)Nc1ccc2c(c1)C(=O)c1ccc(NC(=O)CCNCCCOC)cc1C2=O
K (Nucleic Acid [1]): 760000 M⁻¹ | K (Nucleic Acid [2]): 310000 M⁻¹
